Reference: paper PMC7411652 (Sensors (Basel, Switzerland), 2020)
Where two headings read alike, the source gives them in different places.

How the values were obtained:
[1] = target: T1, CYP1A1 enzyme (Homo sapiens, UniProt P04798); assay: Live-cell IC50 determination, CYP1A1 expressed in yeast cells, 7-ethoxyresorufin (7-ER) substrate; format: cell-based; conditions: 1 × 10^7 cells, 10 min incubation
T1 construct: expressed in transfected cells; host or cells: Saccharomyces cerevisiae W303-1A derived strains yRD+ (+CPR) and yRD-::Bax (-CPR)
T1 sequence (P04798 1-512): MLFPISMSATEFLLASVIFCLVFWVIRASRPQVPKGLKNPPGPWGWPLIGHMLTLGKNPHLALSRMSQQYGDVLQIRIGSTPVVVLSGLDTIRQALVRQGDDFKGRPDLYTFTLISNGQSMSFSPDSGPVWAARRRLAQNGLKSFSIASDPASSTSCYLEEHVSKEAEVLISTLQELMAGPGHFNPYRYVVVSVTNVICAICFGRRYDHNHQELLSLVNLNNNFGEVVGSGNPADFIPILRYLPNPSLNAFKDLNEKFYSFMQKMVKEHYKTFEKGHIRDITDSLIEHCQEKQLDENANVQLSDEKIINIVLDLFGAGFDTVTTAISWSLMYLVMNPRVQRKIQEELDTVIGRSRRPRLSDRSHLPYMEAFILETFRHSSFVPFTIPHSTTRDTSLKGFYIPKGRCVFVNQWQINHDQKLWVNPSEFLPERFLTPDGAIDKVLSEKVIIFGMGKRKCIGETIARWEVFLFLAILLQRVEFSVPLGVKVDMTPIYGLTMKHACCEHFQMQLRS
Experimental: The IC50 values were calculated using the GraphPad Prism software.

[2] = tested on: CYP1A1 Supersomes; conditions: read-out: IC50 for inhibition of CYP1A1 Supersomes; insect cell-derived microsomes, Corning-Gentest; cited from earlier work
[3] = tested on: CYP1A2 Supersomes; set-up: method as in PMID 19359406; conditions: insect cell-derived microsomes, Corning-Gentest, 10 min incubation with microsomal enzyme; read-out: IC50 for inhibition of CYP1A2 Supersomes; cited from earlier work

IC50 ([1]; live yeast strain yRD+ (+CPR), read-out: IC50 for inhibition of CYP1A1 in yRD+ cells) [µM]	IC50 ([1]; live yeast strain yRD−:: Bax (–CPR), read-out: IC50 for inhibition of CYP1A1 in yRD- cells) [µM]	SMILES	IC50 [2] [µM]	IC50 [3] [µM]
0.0208	0.0213	O=c1cc(-c2ccccc2)oc2c1ccc1ccccc12 [ANF, Alpha-naphthoflavone]	0.018	
		Cc1nc2c([nH]1)c(=O)n(C)c(=O)n2Cc1ccco1 [Furafylline]		6.1
